We go through 26 compounds from patent US20090318551A1, “USES OF ANALOGS OF 3-O-ACETYL-11-KETO-BETA-BOSWELLIC ACID” (priority 2004, published 2009).

Structures can show the parent of a compound that is named as a salt.

One assay relates to 5-Lipoxygenase. In words: 5-Lox assay (colorimetric, ferric xylenol orange). Format: biochemical. To be noted: linoleic acid substrate, pH 6.3; for % inhibition @ 250 μM: 250 μM test substance; for % inhibition @ 100 μM: 100 μM test substance. Here is the method:
The AKBA analogs were screened for their 5-Lipoxygenase inhibitory potential using colorimetric method of Craig A. Gay et al (Anal Biochem., 304, 42 46, 2002). The assay mixture contained 50 mM phosphate buffer pH 6.3, 5-Lipoxygenase, various concentrations of test substances and linoleic acid in a total volume of 0.5 mL after 5 min incubation of above reaction mixture 0.5 ml ferric xylenol orange reagent was added and OD was measured after two minutes at 585 nm using spectrophotometer (varian). Controls were run along with test in a similar manner except using vehicle instead of test substance solution. Percent inhibition was calculated by comparing absorbance of test with that of control

Another assay concerns Artemia salina. Nature of the assay: Brine shrimp lethality (BSL) assay. The assay is classed as in vivo. The settings on record: nauplii, viability/mortality after 24 hr; for LC50: Artemia salina, read-out: LD50 in mcM. From the text:
Brine shrimp lethality (BSL) assay is a simple bench top bioassay developed by McLaughlin, et. al. (Studies in Natural Product Chemistry, 9, page 383, 1991 and Am. Chem. Soc. Symp. Series, 534, page 114, 1992) and the results obtained by this assay have been reported to be corroborative with the cytotoxicities determined in 9KB and 9PS cells. The procedure involves hatching Artemia salina cysts in a cone shaped vessel and collecting active nauplii after 48 hr and treating with known concentrations of test substances and vehicle (control) in tubes each tube containing 10 nauplii and checking viability/mortality after 24 hr. Percentage lethality was calculated by comparing mean values of control and test sets of three tubes each. LC50 values were obtained from the graph plotted micro molar concentration against percent lethality.

On to `CC1CCC2(C)CCC3(C)C(=CC(=O)C4C5(C)CCC(OC=O)C(C)(C(=O)O)C5CCC43C)C2C1C` (stereo not drawn) [Compound 1, 3-O-Formyl-11-keto-β-boswellic acid], for which, in the assay with 5-Lipoxygenase, the “% inhibition @ 250 μM” value was 5.5%. For the same compound, the “LD50 in mcM” value in the assay on Artemia salina came to 55.0 mcM.
As to `C[C@@H]1CC[C@]2(C)CC[C@]3(C)C(=CC(=O)C4[C@@]5(C)CCC(OC(=O)CCl)[C@](C)(C(=O)O)C5CC[C@]43C)C2[C@H]1C` (stereo partly drawn) [Compound 2, 3-O-(Chloroacetyl)-11-keto-β-boswellic acid], the “% inhibition @ 250 μM” value with 5-Lipoxygenase stood at 3.12%. The LC50 in the assay on Artemia salina was determined as 98 µM.
For `COc1cc(C(=O)O[C@@H]2CC[C@@]3(C)C(CC[C@]4(C)C3C(=O)C=C3C5[C@@H](C)[C@H](C)CC[C@]5(C)CC[C@]34C)[C@@]2(C)C(=O)O)cc(O)c1O` (stereo partly drawn) [Compound 3, 3-O-(5′-O-methylgalloyl)-11-keto-β-boswellic acid], the “% inhibition @ 100 μM” value in the assay with 5-Lipoxygenase is reported as 27.4%. Also, the LC50 in the assay on Artemia salina came to 33 µM.
Take `CC1CCC2(C)CCC3(C)C(=CC(=O)C4C5(C)CCC(OC(=O)CCC(=O)O)C(C)(C(=O)O)C5CCC43C)C2C1C` (stereo not drawn) [Compound 4, 3-O -Succinyl-11-keto-β-boswellic acid]: the “% inhibition @ 250 μM” value in the assay on 5-Lipoxygenase is on record as 41.1%. Further, the “LD50 in mcM” value in the assay on Artemia salina came to 69.0 mcM.
Take `CC1CCC2(C)CCC3(C)C(=CC(=O)C4C5(C)CCC(OC(=O)C=Cc6ccc(O)cc6)C(C)(C(=O)O)C5CCC43C)C2C1C` (stereo not drawn) [Compound 6, 3-O-[4′-Hydroxycinnamoyl]-11-keto-β-boswellic acid]: the “% inhibition @ 250 μM” value in the assay on 5-Lipoxygenase was found to be 11.3%. In the assay with Artemia salina, the “LD50 in mcM” value stood at 6.0 mcM.
As to `COc1ccc(C=CC(=O)OC2CCC3(C)C(CCC4(C)C3C(=O)C=C3C5C(C)C(C)CCC5(C)CCC34C)C2(C)C(=O)O)cc1OC` (stereo not drawn) [Compound 7, 3-O -(3′,4′-dimethoxycinnamoyl)-11-keto-β-boswellic acid], the “% inhibition @ 250 μM” value in the assay with 5-Lipoxygenase was 17.8%. The “LD50 in mcM” value in the assay on Artemia salina was found to be 6.2 mcM.
`COc1cc(C=CC(=O)OC2CCC3(C)C(CCC4(C)C3C(=O)C=C3C5C(C)C(C)CCC5(C)CCC34C)C2(C)C(=O)O)cc(O)c1O` (stereo not drawn) [Compound 8, 3-O-(3′,4′-Dihydroxy-5′-methoxycinnamoyl)-11-keto-β-boswellic acid]: the “% inhibition @ 250 μM” value with 5-Lipoxygenase came out at 8.1%. Further, in the assay with Artemia salina, the “LD50 in mcM” value was 12.0 mcM.
As to `COC(=O)C1(C)C(OC(=O)CNC(=O)OC(C)(C)C)CCC2(C)C1CCC1(C)C2C(=O)C=C2C3C(C)C(C)CCC3(C)CCC21C` (stereo not drawn) [Compound 9, Methyl 3-O-(N-Boc-glycyl)-11-keto-β-boswellate], the “% inhibition @ 250 μM” value with 5-Lipoxygenase worked out at 16.7%. Moreover, the “LD50 in mcM” value in the assay with Artemia salina is given as over 100 mcM.
On to `C[C@@H]1CC[C@]2(C)CC[C@]3(C)C(=CC(=O)C4[C@@]5(C)CC[C@@H](OC(=O)CN)[C@](C)(C(=O)O)C5CC[C@]43C)C2[C@H]1C` (stereo partly drawn) [Compound 10, 3-O-Glycyl-11-keto-β-boswellic acid hydrochloride], for which, in the assay on 5-Lipoxygenase, the “% inhibition @ 100 μM” value turned out to be 23.9%. Besides, in the assay with Artemia salina, the “LD50 in mcM” value amounted to 12.0 mcM.
In the case of `C[C@H](N)C(=O)O[C@@H]1CC[C@@]2(C)C(CC[C@]3(C)C2C(=O)C=C2C4[C@@H](C)[C@H](C)CC[C@]4(C)CC[C@]23C)[C@@]1(C)C(=O)O` (stereo partly drawn) [Compound 11, 3-O-Alanyl-11-keto-β-boswellic acid hydrochloride], in the assay on 5-Lipoxygenase, the “% inhibition @ 100 μM” value is on record as 33.6%. For the same compound, the “LD50 in mcM” value in the assay on Artemia salina came out at 29.0 mcM.
Take `COC(=O)[C@]1(C)C2CC[C@]3(C)C(C(=O)C=C4C5[C@@H](C)[C@H](C)CC[C@]5(C)CC[C@]43C)[C@@]2(C)CC[C@@H]1O` (stereo partly drawn) [Compound 12, Methyl 3β-hydroxy-11-ketours-12-en-24-oate]: the “% inhibition @ 250 μM” value in the assay with 5-Lipoxygenase is listed as 0.37%. The LC50 in the assay with Artemia salina is over 100 µM.
Consider `COC(=O)[C@]1(C)C2CC[C@]3(C)C(C(=O)C=C4C5[C@@H](C)[C@H](C)CC[C@]5(C)CC[C@]43C)[C@@]2(C)CC[C@@H]1Br` (stereo partly drawn) [Compound 13, Methyl 3β-bromo-11-ketours-12-en-24-oate], for which, in the assay on 5-Lipoxygenase, the “% inhibition @ 250 μM” value worked out at 17.6%. For the same compound, the LC50 in the assay on Artemia salina was over 100 µM.
With `COC(=O)[C@@]1(C)C(C#N)CC[C@@]2(C)C1CC[C@]1(C)C2C(=O)C=C2C3[C@@H](C)[C@H](C)CC[C@]3(C)CC[C@]21C` (stereo partly drawn) [Compound 14, Methyl 3α-cyano-11-ketours-12-en-24-oate], the “% inhibition @ 250 μM” value in the assay with 5-Lipoxygenase is recorded as 3.71%. Further, the LC50 in the assay on Artemia salina is over 100 µM.
As to `COC(=O)[C@]1(C)C2CC[C@]3(C)C(C(=O)C=C4C5[C@@H](C)[C@H](C)CC[C@]5(C)CC[C@]43C)[C@@]2(C)CC[C@H]1S` (stereo partly drawn) [Compound 15, Methyl 3α-thiohydroxy-11-ketours-12-en-24-oate], the “% inhibition @ 250 μM” value with 5-Lipoxygenase worked out at 53.1%. The LC50 with Artemia salina amounted to 5.2 µM.
The like results for `COC(=O)[C@@]1(C)/C(=N\O)CC[C@@]2(C)C1CC[C@]1(C)C2C(=O)C=C2C3[C@@H](C)[C@H](C)CC[C@]3(C)CC[C@]21C` (stereo partly shown) [Compound 16, Methyl 3-oximino-11-ketours-12-en-24-oate] were, in that order, 41.6% and over 100 µM.
Turning to `CC(=O)OC1CC[C@@]2(C)C(CC[C@]3(C)C2C(=O)C=C2C4[C@@H](C)[C@H](C)CC[C@]4(C)CC[C@]23C)[C@@H]1C` (stereo partly shown) [Compound 17, 3-Acetoxy-11-keto-24-norurs-12-ene], in the assay with 5-Lipoxygenase, the “% inhibition @ 250 μM” value came to 0%. Besides, the LC50 in the assay with Artemia salina is over 100 µM.
Take `CC(=O)OC1CC[C@@]2(C)C(CC[C@]3(C)C2C(=O)C=C2C4[C@@H](C)[C@H](C)CC[C@]4(C)CC[C@]23C)[C@@]1(C)C(=O)OCCN(C)C` (stereo partly drawn) [Compound 18, (2′-N,N-Dimethylaminoethyl) 3-O-acetyl-11-keto-β-boswellate]: the “% inhibition @ 100 μM” value in the assay on 5-Lipoxygenase stood at 25.4%. Also, the LC50 in the assay on Artemia salina is over 100 µM.
Regarding `CC(=O)OC1CC[C@@]2(C)C(CC[C@]3(C)C2C(=O)C=C2C4[C@@H](C)[C@H](C)CC[C@]4(C)CC[C@]23C)[C@@]1(C)C(N)=O` (stereo partly drawn) [Compound 19, 3-O-Acetyl-11-keto-β-boswellic acid amide], the “% inhibition @ 250 μM” value in the assay on 5-Lipoxygenase was 35.8%. Besides, the LC50 in the assay on Artemia salina came to 4.6 µM.
The like results for `CC(=O)OC1CC[C@@]2(C)C(CC[C@]3(C)C2C(=O)C=C2C4[C@@H](C)[C@H](C)CC[C@]4(C)CC[C@]23C)[C@@]1(C)C(=O)NN` (stereo partly drawn) [Compound 20, N-(3-O-Acetyl-11-keto-β-boswelloyl)-hydrazide] were, in that order, 54.3% and 2.3 µM.
For the compound `CC(=O)OC1CC[C@@]2(C)C(CC[C@]3(C)C2C(=O)C=C2C4[C@@H](C)[C@H](C)CC[C@]4(C)CC[C@]23C)[C@@]1(C)C(=O)NCCN` (stereo partly drawn) [Compound 21, N-(3-O-Acetyl-11-keto-β-boswelloyl)-ethylenediamine], the “% inhibition @ 250 μM” value with 5-Lipoxygenase stood at 76.6%. Further, the LC50 with Artemia salina is 71 µM.
Consider `CC(=O)OC1CC[C@@]2(C)C(CC[C@]3(C)C2C(=O)C=C2C4[C@@H](C)[C@H](C)CC[C@]4(C)CC[C@]23C)[C@@]1(C)C(=O)NCCO` (stereo partly drawn) [Compound 22, N-(3-O-Acetyl-11-keto-β-boswelloyl)-2-aminoethanol], for which, in the assay on 5-Lipoxygenase, the “% inhibition @ 250 μM” value amounted to 10.4%. In addition, the LC50 in the assay with Artemia salina was over 100 µM.
Turning to `CC(=O)OC1CCC2(C)C(CCC3(C)C2C(=O)C=C2C4C(C)C(C)CCC4(C)CCC23C)C1(C)C(=O)N1CCNCC1` (stereo not drawn) [Compound 23, N-(3-O-Acetyl-11-keto-β-boswelloyl)-piperzine], in the assay with 5-Lipoxygenase, the “% inhibition @ 100 μM” value is reported as 34.9%. Besides, the “LD50 in mcM” value in the assay on Artemia salina was determined as 0.88 mcM.
For the compound `CC(=O)OC1CC[C@@]2(C)C(CC[C@]3(C)C2C(=O)C=C2C4[C@@H](C)[C@H](C)CC[C@]4(C)CC[C@]23C)[C@@]1(C)N=C=O` (stereo partly shown) [Compound 24, 3-Acetoxy-11-keto-24-norurs-12-en-4-isocyanate], the “% inhibition @ 250 μM” value in the assay with 5-Lipoxygenase turned out to be 0%. In addition, the LC50 in the assay with Artemia salina was over 100 µM.
Consider `CC(=O)OC1CC[C@@]2(C)C(CC[C@]3(C)C2C(=O)C=C2C4[C@@H](C)[C@H](C)CC[C@]4(C)CC[C@]23C)[C@@]1(C)N` (stereo partly shown) [Compound 25, 3-Acetoxy-4-amino-11-keto-24-norurs-12-ene], for which the “% inhibition @ 250 μM” value in the assay with 5-Lipoxygenase is given as 60.5%. Moreover, the LC50 in the assay on Artemia salina is 6 µM.
Consider `CC(=O)OC1CC[C@@]2(C)C(CC[C@]3(C)C2C(=O)C=C2C4[C@@H](C)[C@H](C)CC[C@]4(C)CC[C@]23C)[C@@]1(C)C#N` (stereo partly shown) [Compound 26, 3-Acetoxy-4-cyano-11-keto-24-norurs-12-ene], for which, in the assay with 5-Lipoxygenase, the “% inhibition @ 250 μM” value came out at 9.8%. For the same compound, the LC50 in the assay with Artemia salina is over 100 µM.
Consider `C[C@@H]1CC[C@]2(C)CC[C@]3(C)C(=CC(O)C4[C@@]5(C)CC[C@@H](O)[C@](C)(C(=O)O)C5CC[C@]43C)C2[C@H]1C` (stereo partly drawn) [Compound 27, 11-Hydroxy-β-boswellic acid], for which the “% inhibition @ 250 μM” value with 5-Lipoxygenase was determined as 12.2%. In the assay with Artemia salina, the LC50 was found to be 28.3 µM.
